Target: T1, BACE1 enzyme (Homo sapiens, UniProt P56817)
T1 construct: endogenous in cells; washed 48,000 x g membrane pellet / cell homogenate
Experiment: Radioligand displacement assay with a radiolabeled BACE inhibitor
Assay type: binding
Conditions: HEK293-9B.A1 cell homogenate overexpressing BACE1, 1 nM radioligand, pH 5.0, 1.5 hr at 25° C.; read-out: Activity Rating (activity based on IC50 values)
Excerpt: There are a number of methods by which inhibitors of the BACE enzyme can be identified experimentally. The enzyme can be obtained from membrane samples from natural tissues or cultured cells or can be expressed recombinantly in a host cell by well known methods of molecular biology. The whole enzyme or a portion thereof can be expressed, for example, in bacterial, insect or mammalian cells to obtain a catalytically active enzyme species. The enzymatic activity and/or ligand binding capability of the enzyme can be assessed within these membrane samples, or the enzyme can be purified to varying extents. As an illustrative example, the nucleic acid sequence encoding the pro and catalytic domains of human BACE can be appended on the 5′ end with an untranslated and signal sequence from the gene for acetylcholinesterase, and on the 3′ end with a sequence encoding a poly-histidine tag. This cDNA can then be expressed in Drosophila melanogaster S2 cells in which the signal and pro sequences of the transcribed/translated protein are removed by cellular proteases and the catalytic domain, appended by a C-terminal poly-histidine tag, is secreted out into the cellular medium. The enzyme can then be purified from the culture medium by nickel affinity chromatography by methods well known to those trained in the art [Mallender, W. et al., “Characterization of recombinant, soluble beta-secretase from an insect cell expression system.” Mol. Pharmacol. 2001, 59: 619-626]. Similar strategies for expressing and purifying various forms of BACE in bacterial, mammalian and other cell types would be known to one skilled in the art. A preferred method for determining the potency of a test compound in binding to the BACE enzyme is by monitoring the displacement of a suitable radioligand.
Radioligand displacement assays with a radiolabeled BACE inhibitor (WO 2004 013098, compound 3, where the methoxy group is substituted for C(^3H)3) were carried out using standard methods (Keen, M. (1999) in Receptor Binding Techniques (Walker, J. M. ed) p. 106 Humana Press, Totowa, N.J.). The HEK293-9B.A1 cell line, which overexpresses the BACE1 enzyme, was derived from HEK293 cells (Simmons, N. L. (1990) A cultured human renal epithelioid cell line responsive to vasoactive intestinal peptide. Exp. Physiol. 75:309-19.) by RAGE™ (Harrington, J. J. et al. (2001) Creation of genome-wide protein expression libraries using random activation of gene expression. Nat. Biotechnol. 19:440-5.; U.S. Pat. Nos. 6,410,266 and 6,361,972). T225 flask cultures of HEK293-9B.A1 were grown to 80% confluency in DMEM supplemented with 2 mM L-glutamine, 10 μg/mL penicillin, 10 μg/mL streptomycin, 3 μg/mL puromycin, 100 nM methotrexate, and 10% fetal bovine serum (Invitrogen, Carlsbad, Calif.), harvested, and resuspended at 2×10^8 cells per 10 mL of lysis buffer consisting of 50 mM HEPES pH 7.0 containing a protease inhibitor cocktail of AEBSF 104 μM, aprotinin 80 nM, leupeptin 2 μM, bestatin 4 μM, pepstatin A 1.5 μM, and E-64 1.4 μM (0.1% of protease inhibitor cocktail P8340, Sigma-Aldrich, St. Louis, Mo.) at 4° C. The resuspended cells were homogenized using a Polytron (Brinkman, Westbury, N.Y.) at setting 6 for 10 sec., then centrifuged at 48,000×g for 10 min. The resulting pellet was washed by repeating the resuspension, homogenization and centrifugation steps. The final pellet was resuspended in buffer at 4° C. to yield a total protein concentration of 5 mg/mL, then aliquots were frozen in liquid nitrogen for further storage at −70° C. Immediately before carrying out a binding assay, an aliquot of cell homogenate was thawed and diluted to a concentration of 100 μg/mL in assay buffer consisting of 50 mM HEPES pH 5.0 and 0.1% CHAPSO. […]

T1 sequence (P56817 46-501): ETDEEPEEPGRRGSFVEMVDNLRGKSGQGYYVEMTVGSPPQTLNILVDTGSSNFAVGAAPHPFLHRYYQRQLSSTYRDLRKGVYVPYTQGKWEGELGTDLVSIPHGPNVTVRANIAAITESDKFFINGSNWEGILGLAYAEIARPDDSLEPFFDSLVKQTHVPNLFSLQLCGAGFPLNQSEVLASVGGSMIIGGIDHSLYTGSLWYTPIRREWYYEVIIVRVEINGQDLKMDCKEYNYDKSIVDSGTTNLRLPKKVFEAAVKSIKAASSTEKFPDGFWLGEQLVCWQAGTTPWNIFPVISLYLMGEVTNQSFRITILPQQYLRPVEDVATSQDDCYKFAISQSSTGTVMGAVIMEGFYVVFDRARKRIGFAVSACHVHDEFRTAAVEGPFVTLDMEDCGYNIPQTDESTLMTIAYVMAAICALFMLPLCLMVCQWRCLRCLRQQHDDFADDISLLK

Row | SMILES | IC50 [nM]
1 | CCCCCS(=O)(=O)N(C)[C@H]1CC=CCO[C@@H]2Cc3ccc(OC)cc3[C@H]2NC[C@@H](O)[C@H](Cc2ccccc2)NC1=O (racemic) [Example 26, pentane-1-sulfonic acid ((1R,7S,10S,11R,14R)-10-benzyl-11-hydroxy-17-methoxy-8-oxo-2-oxa-9,13-diaza-tricyclo[12.7.0.0^15,20]henicosa-4,15(20),16,18-tetraen-7-yl)-methyl-amide and pentane-1-sulfonic acid ((1S,7S,10S,11R,14S)-10-benzyl-11-hydroxy-17-methoxy-8-oxo-2-oxa-9,13-diaza-tricyclo[12.7.0.0^15,20]henicosa-4,15(20),16,18-tetraen-7-yl)-methyl-amide] | > 500
2 | CCCC[C@H](C)C(=O)N(C)[C@H]1CCCCO[C@@H]2C[C@H](NC[C@@H](O)[C@H](Cc3cc(Cl)cc(Cl)c3)NC1=O)c1cc(OC)ccc12 [Example 49, (S)-2-methyl-hexanoic acid ((1S,4R,5S,8S,14R)-5-(3,5-dichloro-benzyl)-4-hydroxy-18-methoxy-7-oxo-13-oxa-2,6-diaza-tricyclo[12.6.1.0^15,20]henicosa-15(20),16,18-trien-8-yl)-methyl-amide] | < 10
3 | CCCC[C@H](C)C(=O)N(C)[C@H]1CC=CCO[C@H]2CC[C@H](C2)NC[C@@H](O)[C@H](Cc2cc(F)cc(F)c2)NC1=O (racemic) [Example 25, (S)-2-methyl-hexanoic acid [(1R,4R,5S,8S,14S)-5-(3,5-difluoro-benzyl)-4-hydroxy-7-oxo-13-oxa-2,6-diaza-bicyclo[12.2.1]heptadec-10-en-8-yl]-methyl-amide and (S)-2-methyl-hexanoic acid [(1S,4R,5S,8S,14R)-5-(3,5-difluoro-benzyl)-4-hydroxy-7-oxo-13-oxa-2,6-diaza-bicyclo[12.2.1]heptadec-10-en-8-yl]-methyl-amide] | 10 to 500
4 | CC(C)(C)OC(=O)N1CC2CN(c3ccc4c(c3)[C@@H]3C[C@H]4OCC=CCCCC(=O)N[C@@H](Cc4cc(F)cc(F)c4)[C@H](O)CN3)CC2C1 (stereo partly drawn) [Example 96, 5-[(1S,4R,5S,15R)-5-(3,5-difluoro-benzyl)-4-hydroxy-7-oxo-14-oxa-2,6-diaza-tricyclo[13.6.1.0^16,21]docosa-11,16(21),17,19-tetraen-19-yl]-hexahydro-pyrrolo[3,4-c]pyrrole-2-carboxylic acid tert-butyl ester] | 10 to 500
5 | CCCCCS(=O)(=O)N(C)[C@H]1CCCCO[C@H]2Cc3ccc(OC)cc3[C@H]2NC[C@@H](O)[C@H](Cc2ccccc2)NC1=O [Example 29, pentane-1-sulfonic acid ((1S,7S,10S,11R,14R)-10-benzyl-11-hydroxy-17-methoxy-8-oxo-2-oxa-9,13-diaza-tricyclo[12.7.0.0^15,20]henicosa-15(20),16,18-trien-7-yl)-methyl-amide] | 10 to 500
6 | CC(C)CCc1ccc2c(c1)[C@@H]1C[C@H]2OCC=CCCCC(=O)N[C@@H](Cc2cc(F)cc(F)c2)[C@H](O)CN1 [Example 69, (1S,4R,5S,15R)-5-(3,5-difluoro-benzyl)-4-hydroxy-19-(3-methyl-butyl)-14-oxa-2,6-diaza-tricyclo[13.6.1.0^16,21]docosa-11,16(21),17,19-tetraen-7-one] | 10 to 500
7 | CCCC[C@H]1CC=CCO[C@@H]2C[C@H](NC[C@@H](O)[C@H](Cc3cc(F)cc(F)c3)NC1=O)c1cc(OC)ccc12 [Example 8, (1S,4R,5S,8S,14R)-8-butyl-5-(3,5-difluoro-benzyl)-4-hydroxy-18-methoxy-13-oxa-2,6-diaza-tricyclo[12.6.1.0^15,20]henicosa-10,15(20),16,18-tetraen-7-one] | > 500
8 | CN([C@H]1CCC=CCO[C@@H]2C[C@H](NC[C@@H](O)[C@H](Cc3ccccc3)NC1=O)c1cc(Br)ccc12)S(=O)(=O)CCC(F)(F)F [Example 61, 3,3,3-trifluoro-propane-1-sulfonic acid ((1S,4R,5S,8S,15R)-5-benzyl-19-bromo-4-hydroxy-7-oxo-14-oxa-2,6-diaza-tricyclo[13.6.1.0^16,21]docosa-11,16(21),17,19-tetraen-8-yl)-methyl-amide] | < 10
9 | CCCC[C@H](C)C(=O)N(C)[C@H]1CC=CCO[C@@H]2C[C@H](NC[C@@H](O)[C@H](Cc3ccccc3)NC1=O)c1cc(C)cc(C)c12 [Example 100, (S)-2-methyl-hexanoic acid ((1S,4R,5S,8S,14R)-5-benzyl-4-hydroxy-16,18-dimethyl-7-oxo-13-oxa-2,6-diaza-tricyclo[12.6.1.0^15,20]henicosa-10,15(20),16,18-tetraen-8-yl)-methyl-amide] | < 10
10 | CCCCCS(=O)(=O)N(C)[C@H]1CC=CCO[C@@H]2C[C@H](NC[C@@H](O)[C@H](Cc3cc(Cl)cc(Cl)c3)NC1=O)c1cc(OC)ccc12 [Example 43] | < 10
11 | O=C1CCCC=CCO[C@@H]2C[C@H](NC[C@@H](O)[C@H](Cc3cc(F)cc(F)c3)N1)c1cc(-c3cc(C(F)(F)F)cc(C(F)(F)F)c3)ccc12 [Example 91, (1S,4R,5S,15R)-19-(3,5-bis-trifluoromethyl-phenyl)-5-(3,5-difluoro-benzyl)-4-hydroxy-14-oxa-2,6-diaza-tricyclo[13.6.1.0^16,21]docosa-11,16(21),17,19-tetraen-7-one] | > 500
12 | CCOc1ccsc1C(=O)N(C)[C@H]1CC=CCO[C@@H]2C[C@H](NC[C@@H](O)[C@H](Cc3ccccc3)NC1=O)c1cc(OC)ccc12 [Example 20, 3-ethoxy-thiophene-2-carboxylic acid ((1S,4R,5S,8S,14R)-5-benzyl-4-hydroxy-18-methoxy-7-oxo-13-oxa-2,6-diaza-tricyclo[12.6.1.0^15,20]henicosa-10,15(20),16,18-tetraen-8-yl)-methyl-amide] | 10 to 500
13 | COc1ccc2c(c1)[C@@H]1C[C@H]2NCCCC[C@H](N(C)S(=O)(=O)CCC(F)(F)F)C(=O)N[C@@H](Cc2ccccc2)[C@H](O)CN1 (single isomer, unassigned) [Example 52] | 10 to 500
14 | CC(C)Oc1ccc2c(c1)[C@@H]1C[C@H]2OCC=CCCCC(=O)N[C@@H](Cc2cc(F)cc(F)c2)[C@H](O)CN1 [Example 78, (1S,4R,5S,15R)-5-(3,5-difluoro-benzyl)-4-hydroxy-19-isopropoxy-14-oxa-2,6-diaza-tricyclo[13.6.1.0^16,21]docosa-11,16(21),17,19-tetraen-7-one] | < 10
15 | COc1ccc2c(c1)[C@@H]1C[C@H]2OCC=CC[C@H](N(C)C(=O)C(C)CC(F)(F)F)C(=O)N[C@@H](Cc2cc(F)cc(F)c2)[C@H](O)CN1 (single isomer, unassigned; diastereomer a) [Example 21] | < 10
16 | COc1ccc2c(c1)[C@@H]1C[C@H]2COCC=CC[C@H](N(C)S(=O)(=O)CCC(F)(F)F)C(=O)N[C@@H](Cc2ccccc2)[C@H](O)CN1 (single isomer, unassigned; isomer a) [Example 35] | < 10
17 | COc1ccc2c(c1)[C@@H]1C[C@H]2OCC=CCC[C@H](N(C)S(=O)(=O)CCC(F)(F)F)C(=O)N[C@@H](CC(C)C)[C@H](O)CN1 [Example 70, 3,3,3-trifluoro-propane-1-sulfonic acid ((1S,4R,5S,8S,15R)-4-hydroxy-5-isobutyl-19-methoxy-7-oxo-14-oxa-2,6-diaza-tricyclo[13.6.1.0^16,21]docosa-11,16(21),17,19-tetraen-8-yl)-methyl-amide] | < 10
18 | CCCC[C@H](C)C(=O)N(C)[C@H]1CC=CCOC[C@@H](c2ccccc2)NC[C@@H](O)[C@H](Cc2cc(F)cc(F)c2)NC1=O [Example 18, (S)-2-methyl-hexanoic acid [(3R,6R,7S,10S)-7-(3,5-difluoro-benzyl)-6-hydroxy-9-oxo-3-phenyl-1-oxa-4,8-diaza-cyclotetradec-12-en-10-yl]-methyl-amide] | > 500
